Key:
Conditions in all cases: Homo sapiens
[1] = system: MT4; assay: Concentration required to protect MT-4 cells against the cytopathogenicity of HIV-2 (ROD); format: functional, cell-based
[2] = system: MT4; assay: Cytotoxic concentration required to reduce the viability of MT-4 cells by 50%; format: functional
[3] = system: MT4; assay: Concentration required to protect MT-4 cells against the cytopathogenicity of HIV-1 (IIIB/LAI); format: functional, cell-based

O=C(Nc1ccc(Cl)cc1)N1CCCCC1C12CC3CC(CC(C3)C1)C2 (configuration not stated)
EC50 [1]: > 13 µM | CC50 [2]: 12.6 µM | EC50 [3]: > 13 µM

CN1CCCCC1C12CC3CC(CC(C3)C1)C2 (configuration not stated)
EC50 [1]: > 415 µM | CC50 [2]: 413 µM | EC50 [3]: > 415 µM

C1CCC(C23CC4CC(CC(C4)C2)C3)NC1 (configuration not stated)
EC50 [1]: > 403 µM | CC50 [2]: 403 µM | EC50 [3]: > 403 µM

S=C(Nc1ccc(Cl)cc1Cl)N1CCCCC1C12CC3CC(CC(C3)C1)C2 (configuration not stated)
EC50 [1]: > 19 µM | CC50 [2]: 17.7 µM | EC50 [3]: > 19 µM

C1CCN(CCN2CCCCC2C23CC4CC(CC(C4)C2)C3)CC1 (configuration not stated)
EC50 [1]: > 54 µM | CC50 [2]: 52.6 µM | EC50 [3]: 3.6 µM

c1ccc(CN2CCCCC2C23CC4CC(CC(C4)C2)C3)cc1 (configuration not stated)
EC50 [1]: > 64 µM | CC50 [2]: 62.7 µM | EC50 [3]: > 64 µM

CN(C)CCN1CCCCC1C12CC3CC(CC(C3)C1)C2 (configuration not stated)
EC50 [1]: > 276 µM | CC50 [2]: 274 µM | EC50 [3]: 40.8 µM

C1CCN(CC2CC2)C(C23CC4CC(CC(C4)C2)C3)C1 (configuration not stated)
EC50 [1]: > 265 µM | CC50 [2]: 263 µM | EC50 [3]: 75.2 µM

CCN1CCCCC1C12CC3CC(CC(C3)C1)C2 (configuration not stated)
EC50 [1]: > 419 µM | CC50 [2]: 417 µM | EC50 [3]: > 419 µM

Source: ChEMBL document CHEMBL1130489, “Synthesis and anti-HIV activity of some new aminoadamantane heterocycles” (Bioorg Med Chem Lett, 1997)
